Positions of bridges follow the written chain, without caps; N, C: chain ends. Residues, ends and D or L forms follow the SMILES beside them. Chains are numbered I, II in the order given.
How the values were obtained:
[1] = heat treatment (sterilization) of solutions; cited from earlier work
[2] = Testing of the water solubility and thermal stability of bis-(acetylglycyl)-L,L-cystine (HPLC after heating on boiling water bath); format: physicochemical; settings: 0.5 g in 100 ml water, pH 6.5, boiling water bath, after 10, 20 and 30 minutes of heating
Method: (§1) 0.5 g bis-(acetylglycyl)-L,L-cystine are dissolved in 50 ml distilled water. The pH is adjusted to 6.5 by the addition of a 1N sodium hydrogen carbonate solution and then diluted with distilled water to a volume of 100 ml. Of this solution, an HPLC chromatogram is made immediately. The solution is then heated on a boiling water bath.

[3] = water solubility of the novel cystine compounds; format: physicochemical
Method: as §1

[4] = heat sterilization stability of the novel cystine compounds; format: physicochemical; settings: for instance heating to 120° C. for 5 minutes
Method: So, for instance, infusion solutions are prepared by dissolving the purified peptide and the desired amino acid in distilled water. Mineral salts and other substances may further be added to these solutions. Prior to administration, they must be isotonically adjusted. Up to now, it has not been possible to sterilize such solutions in the usual manner (5 minutes, 120° C., pH 5.5 to 7.5) without the decomposition of the cystine-containing component. The novel peptides according to the invention permit a heat treatment of the above-mentioned infusion solution without the decomposition of the cystine derivative.

In the case of `N[C@@H](CSSC[C@H](N)C(=O)O)C(=O)O` [L,L-cystine], the “resistance to heat treatment / thermal stability” value [1] is given as “stable against heat treatment”.

For `N[C@@H](CS)C(=O)O` [L-cysteine], the “resistance to heat treatment / thermal stability” value [1] is listed as “not resistant to heat treatment”.

With `CC(=O)NCC(=O)N[C@@H](CSSC[C@H](NC(=O)CNC(C)=O)C(=O)O)C(=O)O` [bis-(acetylglycyl)-L,L-cystine] (I: Ac-Gly-Cys-OH / II: Ac-Gly-Cys-OH; disulfide I:2-II:2) the “change of HPLC chromatogram after heating” value [2] was “does not show any essential changes”, the solubility in water [3] was “well soluble in water” and the “stability to heat sterilization” value [4] was “stable enough to be heat-sterilizable”.
